ChEMBL document CHEMBL5226360, “Pseudoprolines as stereoelectronically tunable proline isosteres” (Bioorg Med Chem Lett, 2022)
Starred links: 1 amine or outer side, 2 acyl side, 3 side chain; linkers in the order of their positions; H or OH if unused. Non-standard residues stand in square brackets, D forms with d. Residues, ends and D or L forms follow the SMILES beside them. X3 = O=C1C[C@](Cc2ccc(O)cc2)(N[*:1])[C@@H]2SC[C@@H](C(=O)[*:2])N12; X4 = O=C1C[C@](Cc2ccc(O)cc2)(N[*:1])[C@H]2SC[C@@H](C(=O)[*:2])N12; X1 = CC1(C)SC[C@@H](C(=O)[*:2])N1[*:1]; X2 = CC1(C)OC[C@@H](C(=O)[*:2])N1[*:1]; Thz = O=C(O)[C@@H]1CSCN1

Key:
Periplaneta americana [1] = test: Diuretic activity in Periplaneta americana assessed as hindgut contraction by measuring maximal response incubated for 5 mins by myotropic assay relative to control; format: functional
Periplaneta americana [2] = test: Diuretic activity in Periplaneta americana assessed as hindgut contraction by measuring lasting time incubated for 5 mins by myotropic assay; format: functional
Periplaneta americana [3] = test: Diuretic activity in Periplaneta americana assessed as hindgut contraction incubated for 5 mins by myotropic assay; format: functional
[4] = target: Angiotensin-converting enzyme (Homo sapiens, UniProt P12821); test: Inhibition of ACE (unknown origin)
[5] = Oral bioavailability in rat at 10 mg/kg; format: ADME, organism-based; conditions: in vivo
[6] = Oral bioavailability in monkey at 3 mg/kg; format: ADME, organism-based, Macaca mulatta; conditions: rhesus monkey, in vivo
Dipeptidyl peptidase 4 = Dipeptidyl peptidase 4 (Homo sapiens, UniProt P27487); test: Inhibition of DPP4 (unknown origin)
[7] = Oral bioavailability in dog at 3 mg/kg; format: ADME, organism-based, Canis lupus familiaris; conditions: in vivo
[8] = target: Human immunodeficiency virus type 1 protease (Human immunodeficiency virus 1, UniProt Q72874); test: Inhibition of HIV1 protease
[9] = target: Neurotensin receptor type 2 (Homo sapiens, UniProt O95665); test: Inhibition of human NTR2
[10] = target: T1, Type-2 angiotensin II receptor (Rattus norvegicus, UniProt P35351); test: Displacement of [I125I]AngII form AT2 receptor in rat liver membrane incubated for 1.5 hrs by gamma counting method; format: cell membranes
T1 sequence (P35351 whole entry): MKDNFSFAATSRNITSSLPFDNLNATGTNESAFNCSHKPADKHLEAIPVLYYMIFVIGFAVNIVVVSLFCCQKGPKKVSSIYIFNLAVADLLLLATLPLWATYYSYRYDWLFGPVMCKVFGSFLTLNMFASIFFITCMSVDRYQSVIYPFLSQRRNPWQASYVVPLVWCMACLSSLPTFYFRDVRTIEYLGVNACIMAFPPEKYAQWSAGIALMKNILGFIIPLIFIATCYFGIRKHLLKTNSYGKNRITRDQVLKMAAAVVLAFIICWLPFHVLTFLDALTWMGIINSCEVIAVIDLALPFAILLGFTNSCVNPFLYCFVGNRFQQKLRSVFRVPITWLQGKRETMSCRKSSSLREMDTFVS

[11] = target: T2, Type-1 angiotensin II receptor A (Rattus norvegicus, UniProt P25095); test: Displacement of [I125I]AngII form AT1 receptor in rat liver membrane incubated for 1.5 hrs by gamma counting method; format: cell membranes
T2 sequence (P25095 whole entry): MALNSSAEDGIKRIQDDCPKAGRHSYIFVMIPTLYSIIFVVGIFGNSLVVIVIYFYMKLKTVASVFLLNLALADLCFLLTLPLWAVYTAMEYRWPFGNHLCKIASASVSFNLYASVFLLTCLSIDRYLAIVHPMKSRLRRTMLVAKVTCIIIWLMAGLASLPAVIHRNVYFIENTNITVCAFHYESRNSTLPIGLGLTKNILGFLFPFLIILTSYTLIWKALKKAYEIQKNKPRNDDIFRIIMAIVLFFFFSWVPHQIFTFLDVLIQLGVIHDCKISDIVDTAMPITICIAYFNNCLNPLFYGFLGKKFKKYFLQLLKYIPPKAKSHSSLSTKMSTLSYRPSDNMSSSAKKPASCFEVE

[12] = Oral bioavailability in rat at 2 mg/kg; format: ADME, organism-based; conditions: in vivo
[13] = Half life in rat at 2 mg/kg, po; format: ADME, organism-based; conditions: in vivo
[14] = target: D(2) dopamine receptor (Homo sapiens) (UniProt P14416); conditions: dose 1.0 10^-8M
[15] = Octanol-water partition coefficient, logP of the compound; format: physicochemical
Prolyl endopeptidase = target: T3, Prolyl endopeptidase (Homo sapiens, UniProt P48147); test: Inhibition of POP (unknown origin)
T3 sequence (P48147 whole entry): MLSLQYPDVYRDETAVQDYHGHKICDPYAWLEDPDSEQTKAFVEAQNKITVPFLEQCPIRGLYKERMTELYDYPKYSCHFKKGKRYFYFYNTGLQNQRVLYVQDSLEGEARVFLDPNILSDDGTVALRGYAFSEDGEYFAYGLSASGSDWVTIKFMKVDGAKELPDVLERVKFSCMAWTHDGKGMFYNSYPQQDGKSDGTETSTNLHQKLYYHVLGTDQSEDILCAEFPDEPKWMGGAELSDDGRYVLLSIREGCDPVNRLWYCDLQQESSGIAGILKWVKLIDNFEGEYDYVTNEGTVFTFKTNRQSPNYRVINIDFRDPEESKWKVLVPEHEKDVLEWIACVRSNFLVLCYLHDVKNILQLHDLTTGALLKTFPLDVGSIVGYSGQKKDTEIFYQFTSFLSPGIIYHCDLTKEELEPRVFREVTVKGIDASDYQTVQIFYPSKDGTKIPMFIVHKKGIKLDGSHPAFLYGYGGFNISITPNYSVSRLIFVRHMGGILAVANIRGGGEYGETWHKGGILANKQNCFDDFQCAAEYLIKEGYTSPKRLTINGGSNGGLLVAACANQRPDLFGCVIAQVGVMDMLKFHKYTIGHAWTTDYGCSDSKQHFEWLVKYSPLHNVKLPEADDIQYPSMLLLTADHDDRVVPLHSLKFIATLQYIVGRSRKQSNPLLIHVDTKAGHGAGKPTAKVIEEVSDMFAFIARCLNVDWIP

[16] = Half life in dog at 3 mg/kg, po or iv; format: ADME, organism-based, Canis lupus familiaris; conditions: in vivo
[17] = Half life in rat at 10 mg/kg, po or iv; format: ADME, organism-based; conditions: in vivo
[18] = Clearance in monkey at 3 mg/kg, iv; format: ADME, organism-based, Macaca mulatta; conditions: rhesus monkey, in vivo
[19] = Metabolic stability in pooled human liver microsomes assessed as parent compound remaining measured after 1 hr; format: ADME, Microsome; conditions: read-out: Stability
[20] = Volume of distribution at steady state in monkey at 3 mg/kg, iv; format: ADME, organism-based, Macaca mulatta; conditions: rhesus monkey, in vivo, read-out: Vdss
[21] = Volume of distribution at steady state in dog at 3 mg/kg, iv; format: ADME, organism-based, Canis lupus familiaris; conditions: in vivo, read-out: Vdss
[22] = Volume of distribution at steady state in rat at 10 mg/kg, iv; format: ADME, organism-based; conditions: in vivo, read-out: Vdss
[23] = Clearance in dog at 3 mg/kg, iv; format: ADME, organism-based, Canis lupus familiaris; conditions: in vivo
[24] = Half life in monkey at 3 mg/kg, po or iv; format: ADME, organism-based, Macaca mulatta; conditions: rhesus monkey, in vivo
[25] = Clearance in rat at 10 mg/kg, iv; format: ADME, organism-based; conditions: in vivo
[26] = Bioavailability in rat under fasted condition at 10 mg/kg, ID; format: ADME, organism-based; conditions: in vivo
[27] = Tmax in rat at 10 mg/kg, ID; format: ADME, organism-based; conditions: in vivo
[28] = Bioavailability in rat under fed condition at 10 mg/kg, ID; format: ADME, organism-based; conditions: in vivo
[29] = Half life in rat at 10 mg/kg, iv; format: ADME, organism-based; conditions: in vivo
[30] = target: D(2) dopamine receptor (Homo sapiens) (UniProt P14416); conditions: dose 1.0 10^-7M

Dipeptidyl peptidase 4, sequence (P27487 whole entry): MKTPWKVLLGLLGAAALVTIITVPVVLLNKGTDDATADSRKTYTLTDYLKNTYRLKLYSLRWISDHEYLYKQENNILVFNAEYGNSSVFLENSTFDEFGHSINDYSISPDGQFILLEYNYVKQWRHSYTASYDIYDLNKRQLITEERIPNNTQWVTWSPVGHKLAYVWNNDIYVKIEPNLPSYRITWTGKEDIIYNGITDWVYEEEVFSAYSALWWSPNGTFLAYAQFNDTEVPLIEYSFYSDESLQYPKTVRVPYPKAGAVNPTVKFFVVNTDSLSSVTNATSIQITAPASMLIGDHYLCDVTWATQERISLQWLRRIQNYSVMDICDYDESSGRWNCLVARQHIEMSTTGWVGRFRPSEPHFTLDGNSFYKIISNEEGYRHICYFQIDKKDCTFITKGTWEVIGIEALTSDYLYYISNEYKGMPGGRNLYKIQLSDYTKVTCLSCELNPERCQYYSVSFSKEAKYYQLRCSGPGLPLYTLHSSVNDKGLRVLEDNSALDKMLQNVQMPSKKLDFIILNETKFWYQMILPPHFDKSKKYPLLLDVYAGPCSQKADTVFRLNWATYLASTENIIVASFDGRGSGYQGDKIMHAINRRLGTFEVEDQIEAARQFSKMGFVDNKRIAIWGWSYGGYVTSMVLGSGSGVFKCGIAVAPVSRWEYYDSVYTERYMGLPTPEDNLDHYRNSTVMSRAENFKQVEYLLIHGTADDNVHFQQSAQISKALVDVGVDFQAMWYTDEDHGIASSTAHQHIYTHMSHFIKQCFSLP
Neurotensin receptor type 2, sequence (O95665 whole entry): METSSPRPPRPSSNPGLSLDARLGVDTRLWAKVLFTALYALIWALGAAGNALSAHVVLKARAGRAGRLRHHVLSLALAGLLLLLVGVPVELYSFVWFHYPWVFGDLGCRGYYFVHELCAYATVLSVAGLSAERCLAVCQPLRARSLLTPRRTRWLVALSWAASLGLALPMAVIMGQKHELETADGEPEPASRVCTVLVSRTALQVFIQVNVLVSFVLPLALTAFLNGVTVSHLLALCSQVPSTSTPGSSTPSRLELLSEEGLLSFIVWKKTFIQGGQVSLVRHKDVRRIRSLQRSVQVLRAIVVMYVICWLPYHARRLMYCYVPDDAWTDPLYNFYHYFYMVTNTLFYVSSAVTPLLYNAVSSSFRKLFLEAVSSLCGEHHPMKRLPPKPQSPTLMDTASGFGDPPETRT
D(2) dopamine receptor (Homo sapiens), sequence (P14416 whole entry): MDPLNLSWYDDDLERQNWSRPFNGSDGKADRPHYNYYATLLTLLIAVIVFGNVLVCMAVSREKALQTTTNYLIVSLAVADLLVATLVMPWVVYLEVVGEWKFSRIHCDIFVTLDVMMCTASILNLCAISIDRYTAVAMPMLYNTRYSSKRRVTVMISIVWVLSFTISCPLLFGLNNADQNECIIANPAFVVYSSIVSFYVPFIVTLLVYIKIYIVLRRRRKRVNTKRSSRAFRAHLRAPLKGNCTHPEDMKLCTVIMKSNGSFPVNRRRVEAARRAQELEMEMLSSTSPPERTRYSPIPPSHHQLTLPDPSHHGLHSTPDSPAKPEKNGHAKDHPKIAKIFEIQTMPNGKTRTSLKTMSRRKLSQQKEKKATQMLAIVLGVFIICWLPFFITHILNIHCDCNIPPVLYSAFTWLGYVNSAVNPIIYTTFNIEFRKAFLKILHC
Angiotensin-converting enzyme, sequence (P12821 whole entry): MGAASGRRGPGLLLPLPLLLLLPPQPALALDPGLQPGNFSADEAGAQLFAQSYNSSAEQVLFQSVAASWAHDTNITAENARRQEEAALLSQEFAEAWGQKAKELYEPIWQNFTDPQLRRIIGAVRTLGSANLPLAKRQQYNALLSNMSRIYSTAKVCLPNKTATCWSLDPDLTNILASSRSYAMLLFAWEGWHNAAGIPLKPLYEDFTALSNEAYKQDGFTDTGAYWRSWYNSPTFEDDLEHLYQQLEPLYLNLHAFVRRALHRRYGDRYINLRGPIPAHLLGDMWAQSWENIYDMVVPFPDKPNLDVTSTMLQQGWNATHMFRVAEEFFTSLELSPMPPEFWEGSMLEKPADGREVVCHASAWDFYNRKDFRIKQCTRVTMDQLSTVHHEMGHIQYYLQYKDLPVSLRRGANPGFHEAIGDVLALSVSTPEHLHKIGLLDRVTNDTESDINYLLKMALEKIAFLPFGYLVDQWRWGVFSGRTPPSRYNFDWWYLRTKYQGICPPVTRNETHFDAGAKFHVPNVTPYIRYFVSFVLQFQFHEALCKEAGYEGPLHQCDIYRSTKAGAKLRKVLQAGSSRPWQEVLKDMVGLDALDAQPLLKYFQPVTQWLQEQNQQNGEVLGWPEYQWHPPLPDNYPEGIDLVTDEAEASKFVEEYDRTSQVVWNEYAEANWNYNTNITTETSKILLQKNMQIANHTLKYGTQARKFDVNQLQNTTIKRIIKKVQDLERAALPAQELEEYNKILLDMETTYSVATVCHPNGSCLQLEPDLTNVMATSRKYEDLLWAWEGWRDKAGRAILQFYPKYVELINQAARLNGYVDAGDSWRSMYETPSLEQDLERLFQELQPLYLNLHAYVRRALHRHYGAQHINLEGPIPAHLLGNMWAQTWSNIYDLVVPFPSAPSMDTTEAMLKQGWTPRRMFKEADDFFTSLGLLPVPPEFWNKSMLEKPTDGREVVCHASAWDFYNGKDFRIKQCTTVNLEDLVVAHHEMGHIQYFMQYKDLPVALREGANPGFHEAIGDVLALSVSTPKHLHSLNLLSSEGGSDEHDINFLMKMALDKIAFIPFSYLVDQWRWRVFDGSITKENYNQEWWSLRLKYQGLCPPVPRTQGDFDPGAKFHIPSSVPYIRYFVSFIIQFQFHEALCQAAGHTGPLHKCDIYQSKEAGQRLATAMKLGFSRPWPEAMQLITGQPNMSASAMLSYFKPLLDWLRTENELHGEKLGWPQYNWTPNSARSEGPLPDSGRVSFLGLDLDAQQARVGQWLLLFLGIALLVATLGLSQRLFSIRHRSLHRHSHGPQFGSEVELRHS

## CC1(C)OC[C@@H](C(=O)N[C@@H](Cc2c[nH]c3ccccc23)C(=O)NCC(N)=O)N1C(=O)[C@H](Cc1ccccc1)NC(=O)[C@@H](N)Cc1ccccc1 (H-FF[X2]WG-NH2)
Periplaneta americana [1]
  Activity: 120.1%
Periplaneta americana [2]
  Time: 120 s
Periplaneta americana [3]
  EC50: 0.614 nM

## C[C@H](CS)C(=O)N1CCS[C@H]1C(=O)O
[4]
  IC50: 832 nM

## CC(C)[C@H](Nc1ccc(CNC(=O)[C@@H]2CSCN2C(=O)C[C@H](N)Cc2cc(F)ccc2F)cc1)C(=O)O
[5]
  bioavailability: < 2.5%
[6]
  bioavailability: < 2.5%
Dipeptidyl peptidase 4
  IC50: 0.3 nM
[7]
  bioavailability: < 2.5%

## CC(C)(C)NC(=O)[C@@H]1CSCN1C(=O)[C@@H](O)[C@H](Cc1ccccc1)NC(=O)[C@H](CC(N)=O)NC(=O)OCc1ccccc1
[8]
  IC50: 31 nM

## CC(C)(C)NC(=O)[C@H]1N(C(=O)[C@@H](O)[C@H](Cc2ccccc2)NC(=O)[C@H](CC(N)=O)NC(=O)COc2cccc3ccccc23)CSC1(C)C
[8]
  IC50: 2.8 nM

## CC[C@H](C)[C@H](NC(=O)[C@H](Cc1ccc(O)cc1)NC(=O)[C@@H]1C[Si](C)(C)CN1C(=O)[C@H](CCCCN)NC(=O)[C@@H](N)CCCCN)C(=O)N[C@@H](CC(C)C)C(=O)O
[9]
  IC50: 5 nM

## CC(C)C[C@H](NC(=O)[C@H](CCCNC(=N)N)NC(=O)[C@@H](N)CC(=O)O)C(=O)N[C@@]1(Cc2ccc(O)cc2)CC(=O)N2[C@H](C(=O)N[C@@H](Cc3c[nH]cn3)C(=O)N3CCC[C@H]3C(=O)N[C@@H](Cc3ccccc3)C(=O)O)CS[C@@H]21 (H-DRL[X4]HPF-OH)
[10]
  Ki: 3.7 nM
[11]
  Ki: > 10000 nM

## CC(C)(C)NC(=O)[C@@H]1CCCN1C(=O)[C@@H](O)[C@H](Cc1ccccc1)NC(=O)[C@H](CC(N)=O)NC(=O)OCc1ccccc1
[8]
  IC50: 89 nM

## CC(C)[C@H](Nc1ccc(CNC(=O)[C@@H]2CCCN2C(=O)C[C@H](N)Cc2cc(F)ccc2F)cc1)C(=O)O
[12]
  bioavailability: 1.2%
Dipeptidyl peptidase 4
  IC50: 0.48 nM
[13]
  half-life: 0.63 h

## NC(=O)[C@H]1CS[C@@H]2CC[C@]3(CCCN3C(=O)[C@@H]3CCCN3)C(=O)N12
[14]
  inhibition: 14.6%

## O=C(O)[C@@H]1CCCN1C(=O)OCC1c2ccccc2-c2ccccc21
[15]
  logP: 0.094

## CC1(C)SC[C@@H](C(=O)N[C@@H](Cc2c[nH]c3ccccc23)C(=O)NCC(N)=O)N1C(=O)[C@H](Cc1ccccc1)NC(=O)[C@@H](N)Cc1ccccc1 (H-FF[X1]WG-NH2)
Periplaneta americana [1]
  Activity: 100.6%
Periplaneta americana [2]
  Time: 108 s
Periplaneta americana [3]
  EC50: 0.708 nM

## C[Si]1(C)C[C@@H](C(=O)O)N(C(=O)OCC2c3ccccc3-c3ccccc32)C1
[15]
  logP: 1.3

## CC(C)C[C@H](NC(=O)[C@H](CCCNC(=N)N)NC(=O)[C@@H](N)CC(=O)O)C(=O)N[C@@]1(Cc2ccc(O)cc2)CC(=O)N2[C@H]1SC[C@H]2C(=O)N[C@@H](Cc1c[nH]cn1)C(=O)N1CCC[C@H]1C(=O)N[C@@H](Cc1ccccc1)C(=O)O (H-DRL[X3]HPF-OH)
[10]
  Ki: 1 nM
[11]
  Ki: > 10000 nM

## N#C[C@@H]1CS[C@H]2C[C@H](NC(=O)OCc3ccccc3)C(=O)N12
Prolyl endopeptidase
  IC50: 100000 nM

## NC(=O)CNC(=O)[C@H](Cc1c[nH]c2ccccc12)NC(=O)[C@@H]1CSCN1C(=O)[C@H](Cc1ccccc1)NC(=O)[C@@H](N)Cc1ccccc1 (H-FF[Thz]WG-NH2)
Periplaneta americana [1]
  Activity: 71.5%
Periplaneta americana [2]
  Time: 78 s
Periplaneta americana [3]
  EC50: 0.736 nM

## C[C@H](CS)C(=O)N1CSC[C@H]1C(=O)O
[4]
  IC50: 372 nM

## CC(C)(C)NC(=O)[C@@H]1CSCN1C(=O)[C@@H](O)[C@H](Cc1ccccc1)NC(=O)[C@H](CC(N)=O)NC(=O)COc1cccc2ccccc12
[8]
  IC50: 8.8 nM

## CC(C)[C@@H](Nc1ccc(CNC(=O)[C@@H]2SCCN2C(=O)C[C@H](N)Cc2cc(F)c(F)cc2F)cc1)C(=O)O
[16]
  half-life: > 3 h
[17]
  half-life: > 3 h
[18]
  clearance: 16.7 mL/min/kg
[19]
  remaining at 1 h: 98.9%
[5]
  bioavailability: < 2.5%
[20]
  Vd: 0.3 L/kg
[6]
  bioavailability: < 2.5%
[21]
  Vd: 0.3 L/kg
[22]
  Vd: 0.3 L/kg
[7]
  bioavailability: < 2.5%
[23]
  clearance: 16.7 mL/min/kg
[24]
  half-life: > 3 h
[25]
  clearance: 16.7 mL/min/kg

## Cc1ccccc1CNC(=O)[C@H]1N(C(=O)[C@@H](O)[C@H](Cc2ccccc2)NC(=O)c2cccc(O)c2C)CSC1(C)C
[26]
  bioavailability: 33%
[27]
  Tmax: 1 h
[28]
  bioavailability: 33%
[29]
  half-life: 1.55 h

## NC(=O)[C@@H]1CS[C@@H]2CC[C@]3(CCCN3C(=O)[C@@H]3CCCN3)C(=O)N21
[30]
  inhibition: 21.4%

## NC(=O)CNC(=O)[C@H](Cc1c[nH]c2ccccc12)NC(=O)[C@@H]1CCCN1C(=O)[C@H](Cc1ccccc1)NC(=O)[C@@H](N)Cc1ccccc1 (H-FFPWG-NH2)
Periplaneta americana [1]
  Activity: 66.8%
Periplaneta americana [2]
  Time: 72 s
Periplaneta americana [3]
  EC50: 0.794 nM

## CC[C@H](C)[C@H](NC(=O)[C@H](Cc1ccc(O)cc1)NC(=O)[C@@H]1CCCN1C(=O)[C@H](CCCCN)NC(=O)[C@@H](N)CCCCN)C(=O)N[C@@H](CC(C)C)C(=O)O
[9]
  IC50: 0.47 nM

## CSC[C@H](NC(=O)COc1cccc2cnccc12)C(=O)N[C@@H](Cc1ccccc1)[C@H](O)C(=O)N1CSC[C@H]1C(=O)NC(C)(C)C
[8]
  IC50: 6.5 nM
  Ki: 0.74 nM
